{"source": "patent US20210293825A1", "about": "“METHODS FOR PRECISION THERAPEUTIC TARGETING OF HUMAN CANCER CELL MOTILITY AND KITS THEREOF” (UNITED STATES GOVERNMENT AS REPRESENTED BY THE DEPARTMENT …, priority 2018, published 2021)", "key": {"MKK4": {"molecular_target": "T1, MKK4 (Homo sapiens, UniProt P45985, S257E/T261E)", "T1 sequence (P45985 37-399 S257E/T261E)": "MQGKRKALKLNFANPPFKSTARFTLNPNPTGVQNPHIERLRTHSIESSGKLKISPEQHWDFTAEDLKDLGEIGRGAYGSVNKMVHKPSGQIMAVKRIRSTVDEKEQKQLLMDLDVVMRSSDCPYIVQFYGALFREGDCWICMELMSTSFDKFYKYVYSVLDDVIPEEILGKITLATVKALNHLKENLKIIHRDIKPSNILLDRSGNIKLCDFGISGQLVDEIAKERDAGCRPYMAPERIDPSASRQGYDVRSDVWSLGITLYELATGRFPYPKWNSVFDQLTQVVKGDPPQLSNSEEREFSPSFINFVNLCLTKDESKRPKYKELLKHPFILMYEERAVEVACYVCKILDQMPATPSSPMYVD", "experiment": "Fluorescence-based thermal shift assay, MKK4", "type": "binding", "parameters": "made in house", "protocol": "FIG. 16a is a depiction of established MKK4 pathway regulating human PCa cell metastasis. […] Values are the mean±SD (of N=2 replicates) increase in melting temperature (ΔTm) of purified recombinant MKK4 induced by the indicated concentrations of KBU2046 or genistein. […] The indicated concentrations of KBU2046 were added to recombinant activated MKK4, and its ability to phosphorylate kinase dead p38a MAPK (K53A) was measured by Western blot for total (p38 MAPK) and phosphorylated (pp38 MAPK) forms of p38 MAPK. […] PC3-M cells were pre-treated for 24 hours with 50 μM KBU2046 or genistein, as indicated, then with TGFβ, and Western blot performed. These findings are from a single experiment, with similar findings in identical separate experiments, repeated at least once.\nBiophysical and Biochemical Binding Assays. Fluorescent thermal shift (Krishna, S. N. et al., PLoS One 8, e81504 (2013)), isothermal titration calorimetry (Chavez, J. D. et al., Mol Cell Proteomics 12, 1451-67 (2013)), and biolayer interferometry assays (Makowska-Grzyska, M. et al., Biochemistry 51, 6148-63 (2012)), were performed using MEK4EE (37-399, S257E, T261E) cloned into pMCSG7 and KRX Competent E. coli cells (Promega Inc.) and full-length HSP90B and CDC37 vectors and Rosetta BL-21 and BL-21 DE-3 competent E. coli cells, respectively. […]"}, "[1]": {"tested_on": "human cord blood CD34+ stem cells", "experiment": "Hematopoietic stem cell colony formation assay", "type": "cell-based", "settings": "colonies at 14 days", "description": "FIG. 1a is a schematic flow of probe synthesis and development strategy. […] Values are mean±SEM of a single experiment in replicates of N=4, with similar findings in multiple separate experiments (also N=4). […] Values are mean±SEM of a single experiment in replicates of N=24, with similar findings in a separate experiment (also N=24). *Denotes Student's t test P value <0.05, compared to controls. […] Values are mean±SEM from N>2 separate experiments, each in replicates of N=3. […] Values are the mean±SD number of total, CFU-GM, CFU-GEMM or BFU-E colonies at 14 days after treatment with KBU2046, from a single experiment in replicates of N=2. […] Values are the mean±SD of a single experiment, with similar results seen in a separate experiment, both in replicates of N=2.\nHematopoietic Stem Cell Colony Formation Assay. Fourteen-day colony formation assays were conducted as described (Bergan, R. et al., Blood 88, 731-41 (1996)), using human cord blood CD34+ stem cells (AllCells Inc.), using MethoCultExpress™ colony growth media (StemCell Technologies Inc.), performed in replicates of N=2."}}}
{"smiles": "O=C1c2ccccc2OCC1c1ccc(F)cc1", "note": "(racemic) [KBU2046, (±)-3(4-fluorophenyl)chroman-4-one]", "values": [{"measurement": "binding to MKK4", "setting": "MKK4", "value": "did not bind to MKK4"}, {"measurement": "toxicity to human bone marrow stem cells", "setting": "[1]", "value": "not toxic"}]}
